According to patent US7390826B2, “Inhibitors of animal cell motility and growth” (The Board of Trustees of The University of Illinois, priority 2002, dated 2008):
Like-named read-outs stand apart in the source and are kept apart here. Each block holds one compound with its values, some of them ahead of it.

Columns and labels:
Xenopus laevis embryos = assay: frog embryo morphogenesis assay (scoring of developmental defects); assay type: in vivo; conditions: Xenopus laevis, read-out: EC50 with respect to the defective phenotype at 72 hr following treatment
Source text: In order to identify compounds that specifically perturb morphogenesis in the frog embryo, a suitable method for scoring embryos by characteristic defects was developed. A useful starting point was the “dorso-anterior index” (DAI). The DAI originally was constructed by adding new morphological characteristics to the older “index of axis deficiency” (S. R. Scharf et al., Dev. Biol., 99, 75-87 (1983)). The DAI is a scale of dorsoanterior development wherein embryos are assigned a score based on degree of dorsoanterior phenotype (K. R. Kao et al., Dev. Biol., 127, 64-77 (1988)). The scale encompasses a score of 0 (for the most axis-deficient or ventralized embryos) to 10 (for embryos with the most enhanced dorsoanterior structures), with a score of 5 signifying a normal embryo.
Because the DAI focuses only on dorsoanterior phenotypes, other categories were added to describe possible defects more comprehensively, with an emphasis on characteristics that are easily and unambiguously recognized in intact embryos, and that are diagnostic of possible effects on morphogenesis during gastrulation and neurulation. The most useful and readily scored categories that covered the most frequent deficiencies were: reduced anterior structures and microcephaly, delayed appearance or absence of eye pigmentation, overall shortness along the anteroposterior axis, bent axis, bent tail only, reduced posterior structures/tail, malformed or reduced fins, delayed or failed neural tube closure (neural fold fusion), abnormal pigmentation pattern, ventral swelling (edema), and delayed or abnormal visceral organogenesis and yolk resorption. In addition, blastopore closure, an earlier process that marks the completion of gastrulation, was observed.
In these tests, test compounds were added individually to wells each containing 4-8 embryos in 12-well plates. Embryos at stage 8.5-9, according to the classification of Nieuwkoop and Faber (P. I. Nieuwkoop et al., Normal Table of Xenopus laevis (Daudin). Amsterdam: North-Holland Publ.) (1967)), were used because these are late blastula stages before gastrulation begins at stage 10, which allowed focusing primarily on compounds that affect morphogenetic events in gastrulation and neurulation. These embryos, therefore, have undergone a midblastula transition at stage 8 (cleavage division 12) when zygotic transcription begins (J. Newport et al., Cell, 30, 675-686 (1982); J. Newport et al., Cell, 30, 687-696 (1982)) but have not yet started the morphogenetic movements of gastrulation.
Standard procedures were used in the care of animals, gamete preparation, fertilization of oocytes, and culture of embryos (B. K. Kay et al., Methods in Cell Biology, Volumn 36 (San Diego: Academic Press, Inc.) (1991)). In order to stimulate ovulation, female frogs were injected with 500 units of human chorionic gonadotropin (HCG). Eggs were squeezed from female frogs 12 hours later. Testes were removed from euthanized male frogs that had been primed with 50 units of HCG 4-6 hours earlier. The testes were stored at 4° C. in single strength Marc's Modified Ringer's solution with 50 μg/ml gentamycin and used for no more than 10 days. Small pieces of testes were macerated and spread over eggs for in vitro fertilization in Petri dishes. Fertilized eggs were placed in one-tenth strength Modified Barth's Saline (MBS) with 50 μg/ml gentamycin at constant temperature (19° C.) in a temperature-controlled incubator and development allowed to proceed under these conditions. Embryos were dejellied by briefly swirling them in a solution of 2% (w/v) L-cysteine, pH 8.0. The embryos then were rinsed extensively with one-tenth strength MBS to wash out the cysteine. Experiments were started within an hour of dejellying the embryos.
Experiments were carried out in 12-well flat-bottom polystyrene plates with 4-8 embryos per well in 1.0 ml of one-tenth strength MBS with 50 μg/ml gentamycin at 19° C. […]

MDCK cell wounds = assay: lamellipodial density at the margin of MDCK cell wounds; assay type: cell-based, canine; set-up: key to Lamellipodial Density: lamellipodial protrusions per unit margin perimeter length; conditions: 50 μM, mean ± SEM, * p<0.05 vs control
Experimental: Lamellipodial protrusion is known to drive most forms of animal cell crawling. At any given time in the migrating cell sheet, some cells are extending lamellipodia at the margin while others are not. […] Therefore, inhibition of cell sheet migration by compound 1 at least in part is attributed to reduced formation of lamellipodia at the would margin.
Lamellipodial density at the margin of MDCK cell wounds was determined under the following treatment conditions: 0.1% DMSO (control, n=25 wounded monolayers), 50 μM compound 1 (n=19), or 50 μM compound 11 (n=10). Lamellipodial density is the number of lamellipodial protrusions detected at the wound margin until closure for the times indicated divided by margin perimeter length. Values are mean±SEM.
(§1) Wound closure assay and compound screening: MDCK cells were plated on multiwell tissue culture plates and cultured at 37° C. and 5% CO2 with medium changes every two days until confluent. When the cultures reached confluence, medium was changed again and all experimental treatments were begun a day later. Compounds were solubilized in dimethyl sulfoxide (DMSO) and added with fresh-medium to cell cultures at initial screening concentrations of 10 and 100 μM. Controls consisted of parallel wells to-which DMSO solvent carrier alone was added at the same concentration as that added with experimental treatments (not exceeding 0.1% (v/v)). DMSO alone at this concentration had no detectable effect on the cells. Monolayers were scraped 30 min later with a micropipette and ultramicro tips, allowing small wounds of consistent size to be generated. Progress of wound closure was examined at set time intervals following wounding by microscope, and inhibitory or acceleratory effects on wound closure relative to parallel controls noted. […] Digital images of the wounded monolayers were taken every 2 hours for 18 hours, and then at 30, 36, 54, 60, and 72 hours following wounding. The number of lamellipodia at the wound margin was also counted at these times.

MDCK cells = assay: MDCK cell proliferation; assay type: cell-based, canine
Experimental: In FIG. 2A, cells were plated at low cell density (1×10^4 cells/mL) and allowed to attach and begin to grow for 48 hours prior to the start of experiment. The treatments were 0.1% DMSO (control, n=9 cultures), 50 μM compound 1 (n=8), or 50 μM compound 11 (n=7). Reported values are mean with SEM of the percent increase in cell number from 0 to 48 hours after addition of compound 1.
The values were mean with SEM of the percent increase in cell number another 48 hours after replacement of medium containing 50 μM compound 1 (n=8 cultures) or 0.1% DMSO (n=9) with fresh medium containing 0.1% DMSO.
MDCK cell proliferation: MDCK cells were plated on multiwell tissue culture plates at low density ([…]). Cells were allowed to attach and begin to grow for 48 hours before the start of the experiment. Fresh medium with or without compound was then added, and cells were incubated for 48 hours. At both 0 and 48 hours, some of the parallel wells for control and compound treatments were washed twice with PBS and treated with trypsin/EDTA solution to detach the cells. An equal volume of medium was added, cells were collected and counted using a hemacytometer. For reversibility, some of the parallel cultures for both control and compound treatments were grown another 48 hours after washing twice with PBS and replacing medium with fresh compound-free medium. At both the time of washing out and 48 hours later, some of the parallel wells for control and compound treatments were washed twice with PBS, detached from the plates with trypsin/EDTA solution, and the number of cells was counted.

[1] = tested on: Madin-Darby canine kidney (MDCK) cell monolayers; assay: scrape-wound closure assay in MDCK cell monolayers; assay type: cell-based; conditions: even at the highest concentration tested (500 μM)
Source text: A method of determining the ability of a compound to inhibit or accelerate cell motility is a scrape-wound closure assay using cultured mammalian epithelial cell monolayers. Mechanical scraping of the epithelial monolayer induces cell sheet migration into the resulting gap, a phenomenon characteristic of wounded epithelia and mechanistically related to normal epithelial movements during embryonic morphogenesis (A. Jacinto et al., Nat. Cell Biol, 3, E117 (2001)). Epithelial cell sheet migration in this method proceeds by a Rac- and phosphoinositide-dependent cell crawling mechanism resembling the motility of other animal cells that move as individuals rather than as cell sheets (G. Fenteany et al., Curr. Biol., 10, 831 (2000)).
Wound closure in MDCK cell monolayers primarily involves cell spreading and motility rather than proliferation based on observations and treatments that block cell growth without inhibiting closure. However, after closure is complete and the gap is covered, cell division is observed in the former wound area, presumably as part of a homeostatic mechanism to regain the original cell density (M. F. Olson et al., Science, 269, 1270 (1995)). Wound closure involves Rac- and phosphoinositide-dependent actin polymerization and protrusion-driven cell crawling behavior, where force generation for movement is distributed from the wound margin to several rows of cells behind the margin. Accordingly, this method is excellent for determining whether a compound affects cell motility.
Cell culture conditions: Madin-Darby canine kidney (MDCK) cells (American Type Culture Collection cell line CCL-34) were cultured in Minimum Essential Medium (with Earle's balanced salts, non-essential amino acids, L-glutamine and sodium pyruvate) supplemented with 10% newborn calf serum at 37° C. and 5% carbon dioxide (CO2). Main cultures were grown in either […] tissue culture flasks with medium changes every two days. When cultures were about 75% confluent, cells were passaged by rinsing twice with single strength phosphate buffered saline (PBS) and treating with a solution of 0.05% (w/v) trypsin/0.02% (w/v) ethylenediaminetetraacetic acid (EDTA) in PBS to detach cells from the flasks. After cells were detached, an equal volume of serum-containing medium was added to inhibit the trypsin and cell density was determined using a hemacytometer. Cells were replated following dilution in fresh medium on new tissue culture flasks for continued culture and multiwell tissue culture plates for experiments. No culture used exceeded 15 passages. Experimental cultures were grown in 12-, 24-, 48-, or 96-well tissue culture plates with medium changes every two days.
as §1, with “times. […]” for “times.”

[2] = solubility in carrier solvent; assay type: physicochemical
Experimental: Experiments were carried out in 12-well flat-bottom polystyrene plates with 4-8 embryos per well in 1.0 ml of one-tenth strength MBS with 50 μg/ml gentamycin at 19° C. Staging of embryos was done according to the classification of Nieuwkoop and Faber. Embryos at stage 8.5-9 (late blastula stages prior to the debut of gastrulation at stage 10) or at the 2-cell stage (after the first cleavage division, Nieuwkoop and Faber stage 2), as indicated in the figures, were treated with a test compound or dimethylsulfoxide (DMSO) carrier solvent and maintained at 19° C. […] DMSO alone at this concentration had no detectable effect on the embryos. […] As with 0.1% DMSO, this concentration of DMF had no effect on development of the frog embryos. Each experiment was conducted in triplicate on at least three separate occasions for a total of 9 or more wells per treatment. Embryos were observed using a stereomicroscope and scored for defects or delayed development at set times (0, 3, 6, 9, 12, 24, 48, 72, and 96 hours) following treatment.

[3] = 72 hr after treatment, dose-response, 5 concentrations

SMILES: C/C=C/C(=O)N1CCOC1=O [Compound 6]
EC50 (Xenopus laevis embryos; 72 h): 39.1 µM

SMILES: CCCC(=O)N1C(=O)OC[C@@H]1Cc1ccccc1 [Compound 11]
Lamellipodial Density (MDCK cell wounds; 2 hours): 0.563 ± 0.148
Lamellipodial Density (MDCK cell wounds; 4 hours): 1.139 ± 0.270
Lamellipodial Density (MDCK cell wounds; 6 hours): 1.289 ± 0.276
Lamellipodial Density (MDCK cell wounds; 8 hours): 1.196 ± 0.312
Lamellipodial Density (MDCK cell wounds; 10 hours): 1.609 ± 0.357
Lamellipodial Density (MDCK cell wounds; 12 hours): 1.368 ± 0.309
inhibition of MDCK cell proliferation (percent increase in cell number) (MDCK cells; 50 μM, 0 to 48 hours): not
bioactivity in cell proliferation assay (MDCK cells; even at the highest concentration tested (500 μM)): no statistically significant bioactivity
bioactivity in wound closure assay [1]: no statistically significant bioactivity

SMILES: CC/C=C/C(=O)N1C(=O)OC[C@@H]1Cc1ccccc1 [Compound 13]
EC50 (Xenopus laevis embryos; [3]): 54.6 µM

SMILES: C/C=C/C(=O)N1C(=O)OC[C@@H]1C(C)C [Compound 15]
EC50 (Xenopus laevis embryos; 72 h): 25.9 µM

SMILES: C/C=C\C(=O)N1C(=O)OC[C@@H]1Cc1ccccc1 [Compound 17]
EC50 (Xenopus laevis embryos; 72 h): 19.1 µM

solubility in DMF versus DMSO [2]: more soluble in DMF
SMILES: O=C(/C=C/c1c(F)c(F)c(F)c(F)c1F)N1C(=O)OC[C@@H]1Cc1ccccc1 [Compound 22]

SMILES: CCCCC/C=C/C(=O)N1C(=O)OC[C@@H]1Cc1ccccc1 [Compound 23]
EC50 (Xenopus laevis embryos; [3]): 58.1 µM

SMILES: C/C=C/C(=O)N1C(=O)O[C@@H](c2ccccc2)[C@@H]1C [Compound 25]
EC50 (Xenopus laevis embryos; 72 h): 13.9 µM

SMILES: C/C=C/C(=O)N1C(=O)O[C@H](c2ccccc2)[C@H]1C [Compound 26]
EC50 (Xenopus laevis embryos; 72 h): 12.7 µM

SMILES: C/C=C/C(=O)N1C(=O)OC[C@@H]1c1ccccc1 [Compound 30]
EC50 (Xenopus laevis embryos; 72 h): 10.1 µM

SMILES: CC#CC(=O)N1C(=O)OC[C@@H]1Cc1ccccc1 [Compound 31]
EC50 (Xenopus laevis embryos; [3]): 5.9 µM

SMILES: O=C(/C=C/c1cccc(F)c1)N1C(=O)OC[C@@H]1Cc1ccccc1 [Compound 33]
EC50 (Xenopus laevis embryos; [3]): 47.6 µM

solubility in DMF versus DMSO [2]: more soluble in DMF
SMILES: O=C(/C=C/c1ccc(O)cc1)N1C(=O)OC[C@@H]1Cc1ccccc1 [Compound 41]
EC50 (Xenopus laevis embryos; [3]): 27.1 µM

SMILES: C/C=C/C(=O)N1C(=O)OC[C@H]1Cc1ccccc1 [Compound 45]
EC50 (Xenopus laevis embryos; 72 h): 8.9 µM

SMILES: C=CC(=O)N1C(=O)OC[C@@H]1Cc1ccccc1 [Compound 52]
EC50 (Xenopus laevis embryos; 72 h): 6.1 µM

SMILES: O=C(/C=C/c1cccc(C(F)(F)F)c1)N1C(=O)OC[C@@H]1Cc1ccccc1 [Compound 54]
EC50 (Xenopus laevis embryos; [3]): 30.4 µM
